Test results: US10450278B2, “Substituted 2-thioxo-imidazolidin-4-ones and spiro analogues thereof, active anticancer ingredient, pharmaceutical composition, medicinal preparation, method for treating prostate cancer” (R-Pharm Overseas Inc., priority 2014, dated 2019)

Biological target: T1, androgen receptors (Homo sapiens, UniProt P10275, T878A)
T1 sequence (P10275 1-920 T878A): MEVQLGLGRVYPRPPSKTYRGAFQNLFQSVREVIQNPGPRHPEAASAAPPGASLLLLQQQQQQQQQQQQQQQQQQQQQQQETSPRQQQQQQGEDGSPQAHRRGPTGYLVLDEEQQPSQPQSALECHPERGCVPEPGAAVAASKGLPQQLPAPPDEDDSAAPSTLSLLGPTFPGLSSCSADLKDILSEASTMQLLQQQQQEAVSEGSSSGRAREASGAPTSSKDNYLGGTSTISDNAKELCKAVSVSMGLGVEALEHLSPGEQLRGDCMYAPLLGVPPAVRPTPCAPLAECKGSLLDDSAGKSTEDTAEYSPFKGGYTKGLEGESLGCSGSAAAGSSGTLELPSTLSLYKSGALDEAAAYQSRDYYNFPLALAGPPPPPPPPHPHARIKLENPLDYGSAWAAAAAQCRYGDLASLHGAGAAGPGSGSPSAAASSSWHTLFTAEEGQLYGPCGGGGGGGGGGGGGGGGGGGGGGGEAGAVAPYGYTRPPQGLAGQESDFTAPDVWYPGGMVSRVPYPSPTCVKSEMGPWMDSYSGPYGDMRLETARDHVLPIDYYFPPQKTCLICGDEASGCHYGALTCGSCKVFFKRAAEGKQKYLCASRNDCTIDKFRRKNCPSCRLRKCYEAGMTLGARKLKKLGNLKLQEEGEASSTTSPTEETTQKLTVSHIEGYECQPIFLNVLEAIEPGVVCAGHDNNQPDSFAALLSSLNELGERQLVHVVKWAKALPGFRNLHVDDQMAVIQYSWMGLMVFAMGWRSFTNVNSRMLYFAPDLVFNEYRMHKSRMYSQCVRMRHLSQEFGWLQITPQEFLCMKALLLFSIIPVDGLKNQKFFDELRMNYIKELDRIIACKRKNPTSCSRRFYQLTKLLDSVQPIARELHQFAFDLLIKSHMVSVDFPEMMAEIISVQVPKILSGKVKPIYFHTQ
Assay: cell-based
Description: Determination of antagonistic activity of the new compounds of general formula 1 and their analogues with respect to androgen receptors. The ability of the new compounds of general formula 1 and their analogues block androgen receptors is determined by their effectiveness ingbirovaniya sitmulirovannoy dihydrotestosterone expression of prostate-specific antigen (PSA) in the human prostate cancerous cells, LNCap, bank obtained from the American Tissue Culture (ATCC, USA). These cells are sensitive to 5-α-dihydrotestosterone (DHT) and produce cancerous marker (PSA) in its presence. […] Before experiments, the cells were washed and suspended in the same medium, where, however, calf serum was replaced with serum-treated to remove traces of charcoal hormones. Cells were dispensed at 100 1 (10 000 cells) in cell 96 lunochnoyh dies and left for 4 days in an incubator at […] (100% humidity) in an atmosphere of 95% air/5% CO2. […] Cells were allowed to stand for further 5 days under the same incubation conditions. Then nadkletochnoy environmental samples were taken for analysis on the content of the PSA. The analysis was performed according to the protocol recommended by the kit manufacturer to determine the PSA (Alpha Diagnostic International, USA). After wetting holes on the bottom affixed containing antibodies against PSA, they added 25 ul of samples and then 100 µL of antibodies as anti-PSA, which konyugtrovana horseradish peroxidase. After a 30 minute incubation at room temperature, the wells were removed, the wells were washed several times and poured into the wells, 100 ul of a chromogenic peroxidase substrate. Plates were incubated for 15 minutes at room temperature, the wells were added 50 mcl of stop solution and the intensity of color which developed was measured by absorbance at 450 nm. The intensity of the absorption is proportional to the concentration of PSA in the sample. […] 1.

| SMILES | IC50 [nM] | Ki [nM] |
| --- | --- | --- |
| CNC(=O)c1ccc(N2C(=S)N(c3ccc(C#N)c(C(F)(F)F)c3)C(=O)[C@@]2(C)COC)cc1F [II] | 145 | 34.9 |
| CNC(=O)c1ccc(N2C(=S)N(c3ccc(C#N)c(C(F)(F)F)c3)C(=O)[C@]23CCOC3)cc1F [IV] | 83.5 | 20.1 |
